Assay: xn = mol fraction of the nth substance listed
Details: 100 kPa

CCCC[n+]1ccn(C)c1.F[P-](F)(F)(F)(F)F + CCCN
x2 = 0
Details	speed of sound [m/s]
293.15 K	1454.7
298.15 K	1442.4
303.15 K	1430.3
308.15 K	1418.5
313.15 K	1406.8

CCCN + CCCC[n+]1ccn(C)c1.F[P-](F)(F)(F)(F)F
speed of sound [m/s]
Details	x1 = 0.0684	x1 = 0.155	x1 = 0.2613	x1 = 0.3519	x1 = 0.4366	x1 = 0.5956	x1 = 0.69	x1 = 0.79	x1 = 0.9026	x1 = 1
293.15 K	1444.7	1429.8	1407.5	–	1371.3	–	1315	1288.8	–	–
298.15 K	–	1419.3	1395	–	1355.3	1320.6	–	1269.5	1235.5	–
303.15 K	–	–	1380.5	–	1338	–	1277.6	1247.8	–	1189.5
308.15 K	1412.4	–	1365.2	1341	1319.8	1280.4	1257	1225.2	1189.2	1164.9
313.15 K	1399.6	1380.1	1348.8	1324.5	1300	–	–	1202.5	1165.5	1140.4

CCCN + CCCCCC[n+]1ccn(C)c1.F[P-](F)(F)(F)(F)F
x1 = 1
Details	speed of sound [m/s]
293.15 K	1238.3
303.15 K	1189.5
308.15 K	1164.9
313.15 K	1140.4

CCCCCC[n+]1ccn(C)c1.F[P-](F)(F)(F)(F)F + CCCN
speed of sound [m/s]
Details	x2 = 0	x2 = 0.0873	x2 = 0.1718	x2 = 0.2686	x2 = 0.3426	x2 = 0.4606	x2 = 0.5627	x2 = 0.6597	x2 = 0.7913	x2 = 0.902
293.15 K	1436.9	–	1411	1396.5	1385.5	1365.7	1347.1	1324	1289.8	1258.5
298.15 K	1423.5	1408	–	1382.6	1370.4	1350.8	1330.3	1309	1271.5	1238.6
303.15 K	1410.6	1396.1	–	1366.5	1354.3	–	–	1291.1	1253.1	1216.1
308.15 K	1398.2	–	1370.6	1351.7	1337.3	1315.3	–	–	1230.8	1193
313.15 K	–	1372.5	1357.5	1336.2	1320.4	1297.1	–	1250	–	1170

CCCCCCCC[n+]1ccn(C)c1.F[P-](F)(F)(F)(F)F + CCCN
x2 = 0
Details	speed of sound [m/s]
293.15 K	1421.2
298.15 K	1406.4
308.15 K	1378.8
313.15 K	1365.7

CCCN + CCCCCCCC[n+]1ccn(C)c1.F[P-](F)(F)(F)(F)F
speed of sound [m/s]
Details	x1 = 0.0976	x1 = 0.218	x1 = 0.263	x1 = 0.3677	x1 = 0.4676	x1 = 0.5629	x1 = 0.6971	x1 = 0.7972	x1 = 0.9087	x1 = 1
293.15 K	1408	1392.4	1388.7	1375.5	1363.8	–	1327.2	1296.3	1260.5	–
298.15 K	1393.2	1378.7	1375	–	–	1335.9	–	–	1244	1213.9
303.15 K	1381.2	1362.6	1358.9	1344.5	1332.1	1316.2	–	1260.7	–	–
308.15 K	1368.6	1348.2	–	1330.1	1314.1	1299.6	1270.5	1239.1	–	1164.9
313.15 K	–	1333.4	–	1312.1	1295.8	1278.5	–	1218.2	1177.2	1140.4
